Experimental data reported in ChEMBL document CHEMBL4680122, “Design, synthesis and biological evaluation of new Axl kinase inhibitors containing 1,3,4-oxadiazole acetamide moiety as novel linker” (Eur J Med Chem, 2020).

What was measured:
[1] = biological target: Vascular endothelial growth factor receptor 2 (Homo sapiens, UniProt P35968); test: Inhibition of human N-terminal GST-fused KDR cytoplasmic domain (790 to 1356 residues) expressed in baculovirus expression system using CSKtide as substrate measured after 1 hr by mobility shift assay
[2] = biological target: Hepatocyte growth factor receptor (Homo sapiens, UniProt P08581); test: Inhibition of human N-terminal GST-fused c-MET cytoplasmic domain (956 to 1390 residues) expressed in baculovirus expression system using Srctide as substrate measured after 1 hr by mobility shift assay
HT-29 = test: Antiproliferative activity against human HT-29 cells measured after 72 hrs by MTT assay; details: HT-29, 72 h
A549 = test: cells; details: Homo sapiens, A549, 72 h
Description: Antiproliferative activity against human A549 cells measured after 72 hrs by MTT assay

[3] = biological target: Mast/stem cell growth factor receptor Kit (Homo sapiens, UniProt P10721); test: Inhibition of human N-terminal GST-tagged c-Kit cytoplasmic domain (544 to end residues) expressed in baculovirus infected Sf21 insect cells using peptide substrate measured after 1 hr by mobility shift assay
PC-3 = test: cells; details: Homo sapiens, PC-3, 72 h
Description: Antiproliferative activity against human PC-3 cells measured after 72 hrs by MTT assay

[4] = biological target: Platelet-derived growth factor receptor beta (Homo sapiens, UniProt P09619); test: Inhibition of human His-tagged PDGFRB cytoplasmic domain expressed in baculovirus expression system using peptide substrate measured after 1 hr by mobility shift assay
MCF7 = test: Antiproliferative activity against human MCF7 cells measured after 72 hrs by MTT assay; type: functional, cell-based; details: MCF7, 72 h
[5] = biological target: T1, Receptor-type tyrosine-protein kinase FLT3 (Homo sapiens, UniProt P36888); test: Inhibition of human N-terminal GST-fused FLT3 cytoplasmic domain (564 to 993 residues) expressed in baculovirus expression system using Srctide as substrate measured after 1 hr by mobility shift assay
T1 sequence (P36888 whole entry): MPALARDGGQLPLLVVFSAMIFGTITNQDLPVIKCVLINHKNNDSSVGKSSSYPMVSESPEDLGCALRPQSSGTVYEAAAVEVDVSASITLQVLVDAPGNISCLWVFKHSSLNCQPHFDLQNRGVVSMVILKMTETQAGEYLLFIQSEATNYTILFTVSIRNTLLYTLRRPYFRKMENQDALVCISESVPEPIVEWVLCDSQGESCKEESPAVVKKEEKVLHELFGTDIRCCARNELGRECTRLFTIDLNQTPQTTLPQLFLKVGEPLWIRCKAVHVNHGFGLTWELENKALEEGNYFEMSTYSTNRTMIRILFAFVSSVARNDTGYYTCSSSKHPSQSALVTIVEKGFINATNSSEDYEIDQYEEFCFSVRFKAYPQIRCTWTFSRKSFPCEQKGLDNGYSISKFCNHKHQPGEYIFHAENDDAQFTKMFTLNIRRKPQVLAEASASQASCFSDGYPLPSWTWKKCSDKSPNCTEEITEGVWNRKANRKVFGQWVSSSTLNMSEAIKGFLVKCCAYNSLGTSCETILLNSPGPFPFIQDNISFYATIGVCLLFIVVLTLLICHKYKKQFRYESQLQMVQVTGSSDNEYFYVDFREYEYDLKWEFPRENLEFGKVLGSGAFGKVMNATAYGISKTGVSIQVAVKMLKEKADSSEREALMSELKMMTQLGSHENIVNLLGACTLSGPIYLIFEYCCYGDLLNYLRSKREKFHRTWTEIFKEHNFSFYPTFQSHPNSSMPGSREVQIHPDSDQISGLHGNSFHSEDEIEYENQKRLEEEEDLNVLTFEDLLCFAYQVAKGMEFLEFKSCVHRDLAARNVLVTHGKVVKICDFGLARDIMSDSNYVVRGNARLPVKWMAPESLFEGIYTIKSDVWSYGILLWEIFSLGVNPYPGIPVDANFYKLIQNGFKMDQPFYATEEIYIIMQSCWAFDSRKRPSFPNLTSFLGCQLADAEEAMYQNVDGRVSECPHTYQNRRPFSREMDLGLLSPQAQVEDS

[6] = biological target: T2, Tyrosine-protein kinase Mer (Homo sapiens, UniProt Q12866); test: Inhibition of MER (unknown origin)
T2 sequence (Q12866 whole entry): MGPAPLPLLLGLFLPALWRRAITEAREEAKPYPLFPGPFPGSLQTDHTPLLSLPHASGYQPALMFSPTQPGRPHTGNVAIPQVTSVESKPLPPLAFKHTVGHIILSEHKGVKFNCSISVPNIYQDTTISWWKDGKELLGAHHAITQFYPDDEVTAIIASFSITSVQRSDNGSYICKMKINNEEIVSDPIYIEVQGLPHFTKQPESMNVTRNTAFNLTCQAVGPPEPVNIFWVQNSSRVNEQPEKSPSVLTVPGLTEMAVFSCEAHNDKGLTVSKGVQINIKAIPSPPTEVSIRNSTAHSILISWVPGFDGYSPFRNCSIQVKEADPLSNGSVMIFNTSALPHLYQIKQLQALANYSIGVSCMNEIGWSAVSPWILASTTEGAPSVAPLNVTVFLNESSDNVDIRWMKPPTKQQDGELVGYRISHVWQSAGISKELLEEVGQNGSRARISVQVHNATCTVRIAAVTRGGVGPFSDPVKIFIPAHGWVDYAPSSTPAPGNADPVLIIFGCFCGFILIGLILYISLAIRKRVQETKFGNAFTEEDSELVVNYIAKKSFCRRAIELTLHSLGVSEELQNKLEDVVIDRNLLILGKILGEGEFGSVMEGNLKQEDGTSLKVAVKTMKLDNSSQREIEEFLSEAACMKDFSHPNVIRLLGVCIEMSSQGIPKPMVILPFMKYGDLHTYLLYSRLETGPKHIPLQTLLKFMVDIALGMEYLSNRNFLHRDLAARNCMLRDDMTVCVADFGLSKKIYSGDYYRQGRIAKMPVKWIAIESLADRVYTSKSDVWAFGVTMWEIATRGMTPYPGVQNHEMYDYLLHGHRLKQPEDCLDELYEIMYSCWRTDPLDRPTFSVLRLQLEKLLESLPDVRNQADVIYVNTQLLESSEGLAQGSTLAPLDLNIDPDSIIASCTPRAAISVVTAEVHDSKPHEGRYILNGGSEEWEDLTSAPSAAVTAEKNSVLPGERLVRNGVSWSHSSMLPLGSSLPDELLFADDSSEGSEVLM

Hepatocyte growth factor receptor, sequence (P08581 whole entry, the tested form may be a part): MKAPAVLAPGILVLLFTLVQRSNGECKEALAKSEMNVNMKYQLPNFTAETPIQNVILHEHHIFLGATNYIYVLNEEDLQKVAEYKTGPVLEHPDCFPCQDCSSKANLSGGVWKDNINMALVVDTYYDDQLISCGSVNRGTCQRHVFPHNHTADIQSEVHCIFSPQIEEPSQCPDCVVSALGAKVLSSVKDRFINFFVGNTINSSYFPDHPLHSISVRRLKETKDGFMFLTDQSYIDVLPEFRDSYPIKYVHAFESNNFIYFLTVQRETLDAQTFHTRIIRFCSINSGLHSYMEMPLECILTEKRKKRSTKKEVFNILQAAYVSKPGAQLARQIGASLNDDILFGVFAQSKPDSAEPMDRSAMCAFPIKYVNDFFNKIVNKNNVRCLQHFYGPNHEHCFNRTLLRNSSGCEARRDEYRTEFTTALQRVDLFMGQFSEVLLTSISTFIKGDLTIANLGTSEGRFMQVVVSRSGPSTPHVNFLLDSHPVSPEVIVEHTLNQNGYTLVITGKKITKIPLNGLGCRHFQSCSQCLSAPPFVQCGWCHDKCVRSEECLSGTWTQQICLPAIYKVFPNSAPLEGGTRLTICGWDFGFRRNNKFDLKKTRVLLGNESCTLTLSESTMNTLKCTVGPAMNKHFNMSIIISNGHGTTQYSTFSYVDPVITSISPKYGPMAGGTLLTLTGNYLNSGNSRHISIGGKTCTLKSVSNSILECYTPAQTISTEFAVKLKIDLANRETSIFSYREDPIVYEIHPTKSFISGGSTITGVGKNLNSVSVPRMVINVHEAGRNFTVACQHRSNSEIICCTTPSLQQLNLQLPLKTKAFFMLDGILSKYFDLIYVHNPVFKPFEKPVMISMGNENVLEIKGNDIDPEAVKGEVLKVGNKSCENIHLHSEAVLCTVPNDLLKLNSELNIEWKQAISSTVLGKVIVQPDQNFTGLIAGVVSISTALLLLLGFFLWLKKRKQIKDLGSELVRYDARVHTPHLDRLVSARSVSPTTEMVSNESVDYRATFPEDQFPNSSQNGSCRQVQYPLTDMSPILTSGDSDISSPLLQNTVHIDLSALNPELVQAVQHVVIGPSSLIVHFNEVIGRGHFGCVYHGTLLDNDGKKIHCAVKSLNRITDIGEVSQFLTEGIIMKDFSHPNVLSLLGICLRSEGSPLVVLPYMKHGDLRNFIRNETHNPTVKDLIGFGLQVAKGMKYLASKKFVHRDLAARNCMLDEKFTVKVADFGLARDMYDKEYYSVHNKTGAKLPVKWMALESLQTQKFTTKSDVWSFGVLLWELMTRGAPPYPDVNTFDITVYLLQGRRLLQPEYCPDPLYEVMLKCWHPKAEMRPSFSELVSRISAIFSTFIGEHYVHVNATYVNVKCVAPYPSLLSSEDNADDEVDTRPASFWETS
Mast/stem cell growth factor receptor Kit, sequence (P10721 whole entry, the tested form may be a part): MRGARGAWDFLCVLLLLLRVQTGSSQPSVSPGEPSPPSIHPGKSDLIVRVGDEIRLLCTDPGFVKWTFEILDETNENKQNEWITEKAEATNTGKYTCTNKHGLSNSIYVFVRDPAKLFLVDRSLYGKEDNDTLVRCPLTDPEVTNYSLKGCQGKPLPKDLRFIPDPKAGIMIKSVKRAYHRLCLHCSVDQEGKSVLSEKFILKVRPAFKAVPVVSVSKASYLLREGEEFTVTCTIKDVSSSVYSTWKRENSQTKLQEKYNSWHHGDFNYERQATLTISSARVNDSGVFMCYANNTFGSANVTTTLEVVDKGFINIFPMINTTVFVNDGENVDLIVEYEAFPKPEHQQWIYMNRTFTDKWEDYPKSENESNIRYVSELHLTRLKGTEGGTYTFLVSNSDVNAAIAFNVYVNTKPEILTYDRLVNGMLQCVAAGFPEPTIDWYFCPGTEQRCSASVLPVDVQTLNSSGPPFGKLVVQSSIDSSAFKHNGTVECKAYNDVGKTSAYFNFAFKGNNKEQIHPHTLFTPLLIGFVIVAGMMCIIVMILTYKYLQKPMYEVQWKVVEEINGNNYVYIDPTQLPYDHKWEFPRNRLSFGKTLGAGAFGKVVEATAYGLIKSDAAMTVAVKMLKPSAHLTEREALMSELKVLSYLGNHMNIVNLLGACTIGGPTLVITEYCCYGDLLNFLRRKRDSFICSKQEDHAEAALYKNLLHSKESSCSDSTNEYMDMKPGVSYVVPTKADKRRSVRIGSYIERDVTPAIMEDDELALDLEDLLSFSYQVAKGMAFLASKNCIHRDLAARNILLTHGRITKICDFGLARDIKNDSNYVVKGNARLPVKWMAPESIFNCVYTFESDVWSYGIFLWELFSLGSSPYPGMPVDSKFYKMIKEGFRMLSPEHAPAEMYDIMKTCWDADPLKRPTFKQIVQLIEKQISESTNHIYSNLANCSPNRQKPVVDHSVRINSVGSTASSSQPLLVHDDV
Platelet-derived growth factor receptor beta, sequence (P09619 whole entry, the tested form may be a part): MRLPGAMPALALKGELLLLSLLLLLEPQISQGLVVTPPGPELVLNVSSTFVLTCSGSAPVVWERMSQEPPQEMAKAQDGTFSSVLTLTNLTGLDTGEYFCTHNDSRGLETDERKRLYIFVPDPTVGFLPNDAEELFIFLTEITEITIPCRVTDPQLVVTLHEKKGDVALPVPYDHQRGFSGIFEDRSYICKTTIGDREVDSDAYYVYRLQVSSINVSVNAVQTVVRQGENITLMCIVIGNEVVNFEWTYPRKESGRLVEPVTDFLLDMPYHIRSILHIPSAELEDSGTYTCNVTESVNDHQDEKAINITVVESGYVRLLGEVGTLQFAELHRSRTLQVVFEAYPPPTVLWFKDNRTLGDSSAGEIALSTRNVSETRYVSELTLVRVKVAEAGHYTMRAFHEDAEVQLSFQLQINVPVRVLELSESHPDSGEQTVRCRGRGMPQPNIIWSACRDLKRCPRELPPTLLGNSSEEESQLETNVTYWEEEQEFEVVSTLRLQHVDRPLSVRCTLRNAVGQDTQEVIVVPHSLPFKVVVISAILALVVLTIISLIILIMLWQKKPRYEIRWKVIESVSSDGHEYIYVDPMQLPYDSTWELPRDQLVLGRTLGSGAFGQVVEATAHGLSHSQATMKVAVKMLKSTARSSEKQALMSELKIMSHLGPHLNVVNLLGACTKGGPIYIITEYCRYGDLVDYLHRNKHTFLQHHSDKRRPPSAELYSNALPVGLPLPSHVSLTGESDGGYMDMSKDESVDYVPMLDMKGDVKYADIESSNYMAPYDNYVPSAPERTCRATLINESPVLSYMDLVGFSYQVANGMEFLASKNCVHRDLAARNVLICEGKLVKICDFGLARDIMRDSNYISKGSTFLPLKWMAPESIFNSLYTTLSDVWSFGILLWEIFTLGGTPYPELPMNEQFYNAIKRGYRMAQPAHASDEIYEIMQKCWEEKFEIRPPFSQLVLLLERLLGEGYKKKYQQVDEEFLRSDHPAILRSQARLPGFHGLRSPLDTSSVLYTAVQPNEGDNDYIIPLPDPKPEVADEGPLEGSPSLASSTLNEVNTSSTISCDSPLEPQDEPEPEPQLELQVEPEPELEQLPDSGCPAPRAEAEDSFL
Vascular endothelial growth factor receptor 2, sequence (P35968 whole entry, the tested form may be a part): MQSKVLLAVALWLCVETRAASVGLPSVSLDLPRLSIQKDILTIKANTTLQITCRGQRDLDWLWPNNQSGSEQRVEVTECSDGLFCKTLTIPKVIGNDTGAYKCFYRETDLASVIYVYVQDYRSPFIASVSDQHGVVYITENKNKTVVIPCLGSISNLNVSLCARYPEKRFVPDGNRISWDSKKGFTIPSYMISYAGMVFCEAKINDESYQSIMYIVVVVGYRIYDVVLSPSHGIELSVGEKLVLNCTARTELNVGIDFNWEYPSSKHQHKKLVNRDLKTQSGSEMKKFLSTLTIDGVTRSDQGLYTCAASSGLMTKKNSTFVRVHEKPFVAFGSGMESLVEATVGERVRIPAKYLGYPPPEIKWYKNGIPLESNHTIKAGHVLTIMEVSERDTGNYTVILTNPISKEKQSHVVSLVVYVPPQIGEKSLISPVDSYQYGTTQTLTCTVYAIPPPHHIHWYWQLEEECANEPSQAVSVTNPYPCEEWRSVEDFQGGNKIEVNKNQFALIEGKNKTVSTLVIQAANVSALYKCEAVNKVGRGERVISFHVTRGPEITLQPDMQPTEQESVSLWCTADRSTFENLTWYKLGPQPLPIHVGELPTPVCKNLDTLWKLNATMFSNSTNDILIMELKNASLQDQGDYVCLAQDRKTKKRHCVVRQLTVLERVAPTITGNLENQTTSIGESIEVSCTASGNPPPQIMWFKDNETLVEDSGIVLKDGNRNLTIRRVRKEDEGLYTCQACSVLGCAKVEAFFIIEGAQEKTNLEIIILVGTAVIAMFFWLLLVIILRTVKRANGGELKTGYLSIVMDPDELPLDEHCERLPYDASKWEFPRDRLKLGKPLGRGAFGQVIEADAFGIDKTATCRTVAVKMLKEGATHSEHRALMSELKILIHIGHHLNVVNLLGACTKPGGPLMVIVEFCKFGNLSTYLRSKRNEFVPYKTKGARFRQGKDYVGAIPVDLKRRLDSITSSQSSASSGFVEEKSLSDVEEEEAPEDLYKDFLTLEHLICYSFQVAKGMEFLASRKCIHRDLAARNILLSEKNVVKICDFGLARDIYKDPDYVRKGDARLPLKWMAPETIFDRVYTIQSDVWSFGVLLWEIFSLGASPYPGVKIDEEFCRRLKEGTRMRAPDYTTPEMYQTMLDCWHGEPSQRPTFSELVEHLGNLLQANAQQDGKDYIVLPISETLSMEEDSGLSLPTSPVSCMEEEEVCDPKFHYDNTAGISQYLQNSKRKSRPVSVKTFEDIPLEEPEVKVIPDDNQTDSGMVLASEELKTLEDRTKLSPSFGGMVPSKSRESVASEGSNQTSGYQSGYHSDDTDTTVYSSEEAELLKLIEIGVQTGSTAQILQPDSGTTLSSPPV

COc1cc2c(Oc3ccc(NC(=O)C(C)c4nnc(-c5ccc(F)cc5)o4)cc3F)ccnc2cc1OCCCN1CCC(C)CC1 (stereo not given)
IC50 [1]: 40 nM
IC50 [2]: 62 nM
IC50 (HT-29): 1460 nM
IC50 (A549): 32 nM
IC50 [3]: 47 nM
IC50 (PC-3): 530 nM
IC50 [4]: > 200 nM
IC50 (MCF7): 1000 nM
IC50 [5]: > 200 nM
IC50 [6]: > 200 nM
